# Experimental data as given in ChEMBL document CHEMBL1201862, “PubChem BioAssay data set” (2004).
# Activity calls are given as the source filed them.
# Legend:
# Caspase-3 = target: T1, Caspase-3 (Homo sapiens, UniProt P42574); type: functional;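 also: Dose-response selectivity test against caspase-3 for candidate inhibitors of sentrin-specific proteases (SENPs)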
# T1 sequence (P42574 whole entry): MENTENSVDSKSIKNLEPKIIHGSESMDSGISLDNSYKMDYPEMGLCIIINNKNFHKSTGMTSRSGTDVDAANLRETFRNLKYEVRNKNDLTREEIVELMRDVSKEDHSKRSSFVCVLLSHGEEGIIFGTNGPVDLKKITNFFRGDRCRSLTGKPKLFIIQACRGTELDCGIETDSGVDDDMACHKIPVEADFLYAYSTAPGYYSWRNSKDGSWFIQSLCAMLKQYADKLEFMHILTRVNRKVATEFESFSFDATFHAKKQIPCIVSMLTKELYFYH
# [1] = target: T2, Sentrin-specific protease 7 (Homo sapiens, UniProt Q9BQF6); type: functional;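 also: Luminescence-based dose-response confirmation of ultra-high-throughput screening hits, measuring inhibition of SENP7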
# T2 sequence (Q9BQF6 whole entry): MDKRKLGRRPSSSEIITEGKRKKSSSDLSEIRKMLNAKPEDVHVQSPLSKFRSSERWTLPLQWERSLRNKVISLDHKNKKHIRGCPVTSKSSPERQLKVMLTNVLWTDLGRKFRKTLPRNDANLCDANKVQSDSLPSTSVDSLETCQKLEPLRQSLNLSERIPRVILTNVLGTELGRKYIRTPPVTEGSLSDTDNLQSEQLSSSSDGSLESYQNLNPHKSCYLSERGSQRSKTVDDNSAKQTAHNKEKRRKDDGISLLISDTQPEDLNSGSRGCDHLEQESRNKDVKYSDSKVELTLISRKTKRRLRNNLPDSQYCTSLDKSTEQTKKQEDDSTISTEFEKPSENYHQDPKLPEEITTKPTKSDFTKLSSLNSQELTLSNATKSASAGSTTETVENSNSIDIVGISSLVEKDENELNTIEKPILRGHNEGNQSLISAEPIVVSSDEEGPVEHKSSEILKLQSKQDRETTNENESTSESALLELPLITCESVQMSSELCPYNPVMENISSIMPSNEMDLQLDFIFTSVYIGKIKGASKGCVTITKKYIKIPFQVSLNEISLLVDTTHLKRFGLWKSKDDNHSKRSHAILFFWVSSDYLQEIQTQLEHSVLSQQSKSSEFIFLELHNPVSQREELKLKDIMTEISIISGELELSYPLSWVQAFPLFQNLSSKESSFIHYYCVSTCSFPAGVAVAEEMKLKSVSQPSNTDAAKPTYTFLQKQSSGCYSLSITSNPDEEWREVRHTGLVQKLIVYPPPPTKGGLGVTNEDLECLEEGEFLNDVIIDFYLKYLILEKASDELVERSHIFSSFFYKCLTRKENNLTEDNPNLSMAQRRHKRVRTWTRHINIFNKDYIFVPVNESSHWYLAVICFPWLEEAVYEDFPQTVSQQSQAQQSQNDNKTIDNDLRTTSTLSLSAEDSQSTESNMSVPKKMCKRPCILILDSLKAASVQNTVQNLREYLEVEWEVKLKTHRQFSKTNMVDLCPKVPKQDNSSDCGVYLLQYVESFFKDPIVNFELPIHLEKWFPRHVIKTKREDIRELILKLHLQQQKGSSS
# [2] = target: T3, Sentrin-specific protease 6 (Homo sapiens, UniProt Q9GZR1); type: functional;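 also: Luminescence-based dose-response confirmatory assay of SENP6 inhibition, following up an ultra-high-throughput screen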
# T3 sequence (Q9GZR1 whole entry): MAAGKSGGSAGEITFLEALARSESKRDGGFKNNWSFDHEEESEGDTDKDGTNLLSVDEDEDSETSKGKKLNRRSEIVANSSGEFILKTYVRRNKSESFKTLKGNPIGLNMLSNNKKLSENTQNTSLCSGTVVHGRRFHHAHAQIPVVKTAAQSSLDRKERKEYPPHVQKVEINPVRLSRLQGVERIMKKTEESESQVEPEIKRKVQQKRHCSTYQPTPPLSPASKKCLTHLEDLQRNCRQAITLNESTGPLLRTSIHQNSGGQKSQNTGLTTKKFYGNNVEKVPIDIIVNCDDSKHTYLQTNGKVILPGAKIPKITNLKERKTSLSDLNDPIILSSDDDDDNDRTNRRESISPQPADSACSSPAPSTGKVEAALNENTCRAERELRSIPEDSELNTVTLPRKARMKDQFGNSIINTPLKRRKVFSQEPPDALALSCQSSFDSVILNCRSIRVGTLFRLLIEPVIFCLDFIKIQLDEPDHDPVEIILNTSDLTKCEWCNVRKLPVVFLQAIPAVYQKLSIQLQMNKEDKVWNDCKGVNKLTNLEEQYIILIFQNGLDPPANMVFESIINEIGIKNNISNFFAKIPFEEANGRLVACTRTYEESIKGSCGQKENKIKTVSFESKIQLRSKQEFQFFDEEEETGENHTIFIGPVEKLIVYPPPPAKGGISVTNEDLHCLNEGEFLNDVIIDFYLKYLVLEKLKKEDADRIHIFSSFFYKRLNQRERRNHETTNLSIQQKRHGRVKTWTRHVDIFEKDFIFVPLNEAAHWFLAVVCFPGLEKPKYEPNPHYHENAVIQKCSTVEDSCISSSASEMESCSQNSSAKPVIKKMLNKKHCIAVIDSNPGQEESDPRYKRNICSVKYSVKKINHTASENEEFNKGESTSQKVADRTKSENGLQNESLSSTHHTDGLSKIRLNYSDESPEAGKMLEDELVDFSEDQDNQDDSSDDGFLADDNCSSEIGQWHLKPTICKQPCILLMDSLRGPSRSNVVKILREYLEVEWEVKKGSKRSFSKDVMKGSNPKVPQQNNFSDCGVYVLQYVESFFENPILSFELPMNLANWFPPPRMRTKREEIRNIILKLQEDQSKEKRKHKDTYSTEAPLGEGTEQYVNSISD
# [3] = target: T4, Sentrin-specific protease 8 (Homo sapiens, UniProt Q96LD8); type: functional;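 also: luminescence read-out of SENP8 inhibition, dose-response confirmation following an ultra-high-throughput screen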
# T4 sequence (Q96LD8 whole entry): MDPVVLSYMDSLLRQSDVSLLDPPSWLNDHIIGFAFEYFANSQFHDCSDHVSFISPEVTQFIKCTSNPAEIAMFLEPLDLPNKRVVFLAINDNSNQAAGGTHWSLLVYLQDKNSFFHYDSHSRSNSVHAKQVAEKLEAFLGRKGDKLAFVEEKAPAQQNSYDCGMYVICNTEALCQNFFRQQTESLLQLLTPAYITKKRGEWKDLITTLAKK
# [4] = target: T5, Corticotropin-releasing factor receptor 2/Corticotropin-releasing factor-binding protein (Homo sapiens, UniProt P24387+Q13324); assay: Dose Response confirmation of uHTS hits for small molecule antagonists of the CRF-binding protein and CRF-R2 receptor complex.; type: functional; conditions: read-out: IC50_Mean
# T5 sequence (Q13324 whole entry): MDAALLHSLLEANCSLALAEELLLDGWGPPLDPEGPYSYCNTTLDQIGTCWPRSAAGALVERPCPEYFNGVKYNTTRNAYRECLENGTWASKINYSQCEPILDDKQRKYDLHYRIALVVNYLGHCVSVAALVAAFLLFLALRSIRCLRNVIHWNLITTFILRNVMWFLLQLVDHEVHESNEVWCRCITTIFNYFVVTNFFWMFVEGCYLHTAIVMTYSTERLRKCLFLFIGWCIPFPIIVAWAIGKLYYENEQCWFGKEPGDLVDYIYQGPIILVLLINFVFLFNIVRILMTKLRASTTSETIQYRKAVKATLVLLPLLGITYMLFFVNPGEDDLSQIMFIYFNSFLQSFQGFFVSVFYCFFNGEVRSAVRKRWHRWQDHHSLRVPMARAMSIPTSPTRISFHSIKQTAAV
# T5 sequence (P24387 whole entry): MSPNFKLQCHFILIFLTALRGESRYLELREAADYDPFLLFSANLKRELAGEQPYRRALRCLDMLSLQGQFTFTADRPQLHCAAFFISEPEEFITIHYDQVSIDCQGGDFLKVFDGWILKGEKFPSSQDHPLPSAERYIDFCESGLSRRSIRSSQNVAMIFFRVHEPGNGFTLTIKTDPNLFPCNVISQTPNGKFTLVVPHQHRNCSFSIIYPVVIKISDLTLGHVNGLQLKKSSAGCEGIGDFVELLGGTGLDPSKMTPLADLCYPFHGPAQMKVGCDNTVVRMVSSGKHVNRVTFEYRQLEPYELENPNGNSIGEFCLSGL
# [5] = target: T5, Corticotropin-releasing factor receptor 2/Corticotropin-releasing factor-binding protein; assay: activators of CRF receptor 2 with binding protein – uHTS hits, confirmation (AID 602473); type: functional; conditions: read-out: EC50_Mean
# [6] = CRF-BP/CRF-R2 complex antagonists, dose response, cell-based, uHTS hits, 384-well (AID 651639); type: functional, Homo sapiens; conditions: read-out: IC50_Mean
# cells = type: functional
# Protein Tat = target: T6, Protein Tat (Human immunodeficiency virus type 1 group M subtype B (isolate HXB2)(HIV-1), UniProt P04608); type: functional;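 also: tat binding to TAR RNA read out by fluorescence polarization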
# T6 sequence (P04608 whole entry): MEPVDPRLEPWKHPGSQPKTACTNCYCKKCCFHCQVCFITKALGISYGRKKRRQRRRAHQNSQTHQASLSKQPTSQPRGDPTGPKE
# SN12K1 = assay: cells; type: functional; conditions: Homo sapiens
# [7] = P. falciparum Dd2 growth inhibitors, dose response, SYBR Green, cherry-picked samples (AID 1159567); type: functional, cell-based
# [8] = HepG2 cell cytotoxicity, dose response, cytotoxicity control, cherry-picked samples (AID 1159577); type: functional, cell-based
# [9] = THP-1 cell cytotoxicity, dose response, cytotoxicity control for Vif-APOBEC3G degradation inhibitor project, THP-1 cells (AID 1117359); type: functional; conditions: Human immunodeficiency virus 1, THP-1
# [10] = inhibitors of HIV Env-driven cell fusion, dose response, cherry-pick (AID 652057); type: functional, cell-based
# [11] = CEM21 lymphoblast cell cytotoxicity, dose response, cytotoxicity control for viral fusion inhibitor project, CellTiter-Glo luminescence, cherry-picked (AID 652042); type: functional, cell-based;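 also: potency for signal decrease meaning cytotoxicity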
# [12] = ZM109 Env clade C HIV-1 fusion inhibitors, dose response, HeLa effector, CEM target cells, luciferase, cherry-pick (AID 652058); type: functional, cell-based
# [13] = off-target signal loss in HeLa-CEM21 co-culture – HeLa F-luc CTL cells, cherry-picked, counter-screen for HIV-1 Env fusion inhibitor project, dose response (AID 652040); type: functional, cell-based;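 also: potency for signal decrease marking cytotoxic or nonspecific inhibition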
# [14] = inhibitors of clade B AD8 Env fusion, dose response, cell-based, cherry-pick (AID 652062); type: functional;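 also: luciferase signal from cell-cell fusion driven by HIV-1 clade B AD8 Env; potency is for inhibitors of fusion seen as a drop in luminescence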
# [15] = HEp-2 cell cytotoxicity, dose response, cytotoxicity control for RSV inhibitor project, HTS (AID 2410); type: functional; conditions: human respiratory syncytial virus
# [16] = inhibitors of intracellular T. cruzi replication, confirmation, NIH3T3 host cells, beta-gal luminescence (AID 2044); type: functional, cell-based;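 also: intracellular parasites grown in NIH/3T3 mouse fibroblasts as host cells; luminescent beta-galactosidase reporter signal from transgenic T. cruzi replicating inside host cells; inhibitors lower the luminescence signal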
# [17] = cytotoxicity toward NIH3T3 fibroblasts, dose response, counter-screen, cell-based, ATP luminescence, mouse fibroblasts (AID 2010); type: functional;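 also: cells exposed to compound for about 90 hours before reading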
# Cytochrome P450 3A4 = Cytochrome P450 3A4 (Homo sapiens, UniProt P08684);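 also: CYP3A4 tested as one member of a cytochrome P450 panel screen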
# Cytochrome P450 3A4, sequence (P08684 whole entry): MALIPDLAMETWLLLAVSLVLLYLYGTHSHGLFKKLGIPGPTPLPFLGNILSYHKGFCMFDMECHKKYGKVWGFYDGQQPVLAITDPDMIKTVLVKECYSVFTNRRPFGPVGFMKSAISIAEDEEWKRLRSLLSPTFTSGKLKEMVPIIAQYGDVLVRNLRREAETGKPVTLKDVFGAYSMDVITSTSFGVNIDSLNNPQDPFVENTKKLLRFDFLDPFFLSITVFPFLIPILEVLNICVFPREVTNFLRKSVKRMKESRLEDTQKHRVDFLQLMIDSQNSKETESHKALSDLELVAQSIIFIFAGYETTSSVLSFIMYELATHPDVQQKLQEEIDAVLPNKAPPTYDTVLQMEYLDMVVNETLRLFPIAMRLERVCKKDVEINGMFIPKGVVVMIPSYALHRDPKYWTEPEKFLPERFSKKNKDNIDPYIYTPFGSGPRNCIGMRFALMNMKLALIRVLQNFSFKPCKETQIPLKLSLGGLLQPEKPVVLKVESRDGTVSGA
smiles,measurement,setting,value
Cc1cccc(-c2cc3nc(-c4ccccc4)cc(O)n3n2)c1,IC50,Caspase-3,3.86 µM (active)
same,IC50,[1],2.94 µM (active)
same,IC50,[2],3.88 µM (active)
same,IC50,[3],2.01 µM (active)
Cn1c(=O)c2ncn(CC(=O)Nc3cccc(-c4nc5ccccc5s4)c3)c2n(C)c1=O,IC50,Caspase-3,21.4 µM (active)
same,IC50,[1],15.6 µM (active)
same,IC50,[2],23.4 µM (active)
same,IC50,[3],26.1 µM (active)
CN(C)c1cccc(C(=O)OCC(=O)Nc2ccccc2Sc2ccccc2)c1,IC50,[4],13.1 µM (active)
same,EC50,[5],> 53 µM (inactive)
same,IC50,[6],> 20 µM (inactive)
CCCn1c(CNc2ccccc2O)nc2ccccc21,IC50,cells,5.79 µM (active)
same,IC50,Protein Tat,> 100 µM (active)
CN1CCc2[nH]c3ccccc3c2C1,GI50,SN12K1,> 100 µM (inactive)
Cc1cc(N2CCCCC2)n2ncc(-c3ccccc3)c2n1,IC50,Caspase-3,30.1 µM (active)
same,IC50,[1],6.65 µM (active)
same,IC50,[2],13.8 µM (active)
same,IC50,[3],12.4 µM (active)
Cc1cc(C(F)(F)F)n(-c2nc(C(=O)N/N=C/c3ccc(F)cc3)cs2)n1,IC50,[4],10.7 µM (active)
same,EC50,[5],> 53 µM (inactive)
same,IC50,[6],> 20 µM (inactive)
CN(C(=O)c1ccccc1)c1nc2ccccc2s1,IC50,Caspase-3,15.6 µM (active)
same,IC50,[1],6.81 µM (active)
same,IC50,[2],21.1 µM (active)
same,IC50,[3],50.4 µM (active)
Cc1cccc(C)c1NC(=O)CCS(=O)(=O)c1cccc2nsnc12,IC50,Protein Tat,> 100 µM (active)
CC(C)=C1C2CCC1C(C(=O)Nc1sc(C)c(-c3ccc(C(C)C)cc3)c1C(N)=O)C2C(=O)O (stereo unspecified),IC50,[4],5.03 µM (active)
same,EC50,[5],15.9 µM (active)
same,IC50,[6],18.8 µM (active)
O=C(Nc1ccc(-c2ccccc2)cc1)[C@@H]1[C@@H](CO)[C@@H]2Cn3c(cccc3=O)[C@@H]2N1CC1CCCCC1,AC50,[7],3.64 µM (active)
same,AC50,[8],> 39 µM (inactive)
CC(C)(C)NC(=O)/C(=C/c1ccco1)c1ccccc1,IC50,Protein Tat,> 100 µM (inconclusive)
CS(=O)(=O)c1ccc(C(=O)Nc2nc(-c3ccco3)c(-c3ccco3)s2)cc1,CC50,[9],> 40 µM (active)
CO[C@H]1CN(C)C(=O)c2cc(NC(=O)c3ccc(-c4ccccc4)cc3)ccc2OC[C@@H](C)NC[C@H]1C,AC50,[7],5.5 µM (active)
same,AC50,[8],19.8 µM (active)
CCOC(=O)N1CCC(NC(=O)c2ccc(OC)c(CN3CC(=O)N4CCCC4C3=O)c2)CC1 (stereo unspecified),IC50,Protein Tat,> 100 µM (inconclusive)
COC(=O)[C@]12C[C@H](CC(=O)NCc3ccccc3)C(=O)N(CCC3=CCCCC3)C1=C[C@H](C(C)(C)C)O[C@@H]2C,AC50,[10],1.76 µM (active)
same,AC50,[11],32.7 µM (active)
same,AC50,[12],3.2 µM (active)
same,AC50,[13],2.75 µM (active)
same,AC50,[14],4.31 µM (active)
C[C@H](CO)N1C[C@H](C)[C@@H](CN(C)Cc2cccnc2)Oc2cc(/C=C/c3ccccc3)ccc2S1(=O)=O,AC50,[7],4.03 µM (active)
same,AC50,[8],> 39 µM (inactive)
CCOC(=O)C1=C(C)N=C2c3ccccc3C(=O)C2C1c1ccc(Cl)cc1 (stereo unspecified),CC50,[15],28.7 µM (active)
same,EC50,[16],2.06 µM (active)
same,EC50,[17],29.9 µM (active)
same,AC50,[10],12 µM (active)
same,AC50,[11],55.8 µM (active)
same,AC50,[12],< 0.26 µM (active)
same,AC50,[13],16.9 µM (active)
same,AC50,Cytochrome P450 3A4,inconclusive
